Among the data in the OPERA property sets (Mansouri et al. 2018) are solubility values, retold here.

In brackets after ≈: the same amount, converted by molar mass.

For this data set the following is noted: 25 °C.
Take `CCCCCCCc1ccccc1`: the solubility (in general, the dissolved amount per volume that the medium holds) stood at 2.54 µM (≈ 0.447 µg/mL).

In turn, `Fc1cccc2ccccc12` returned a solubility of 353 µM (≈ 51.5 µg/mL).

Compound `Cc1c(C)c(C)c(C)c(C)c1C` yielded a solubility of 1.45 µM (≈ 0.235 µg/mL).

`CC(=O)OCCBr` gave a solubility of 212000 µM (≈ 35400 µg/mL).

Compound `Clc1cccc2ccccc12` yielded a solubility of 107 µM (≈ 17.4 µg/mL).

Regarding `CCCCCCCC(C)=O`, the solubility is 2610 µM (≈ 371 µg/mL).

In turn, `CCCCCCCCc1ccccc1` showed a solubility of 0.347 µM (≈ 0.066 µg/mL).

In the case of `CCCCCCCCC(C)=O`, the solubility amounted to 491 µM (≈ 76.8 µg/mL).

In turn, `Fc1ccc(CCl)cc1` showed a solubility of 2860 µM (≈ 413 µg/mL).

Take `CCCCCCCCC(=O)OC`: the solubility turned out to be 133 µM (≈ 22.9 µg/mL).

Turning to `CC(Br)CCl` (configuration not stated), the solubility was 14200 µM (≈ 2240 µg/mL).

Take `Cc1ccc(C)c(O)c1C`: the solubility turned out to be 11600 µM (≈ 1580 µg/mL).
